Data: patent US8623327B2, “Imaging agents for use in magnetic resonance blood flow/perfusion imaging” (Beth Israel Deaconess Medical Center, Inc., priority 2006, dated 2014)
Where two headings read alike, the source gives them in different places. One block for each compound: values may come before it.

What was measured:
[1] = NMR relaxation time (T1, T2) measurement, saturation recovery; type: physicochemical; conditions: for median value of T1: 9.6 T
[2] = test system: alcohol dehydrogenase enzyme; conditions: cited from earlier work
[3] = cited from earlier work
[4] = cited from earlier work; remark: listed apart in the source
[5] = single saturated recovery experiment (FIGS. 2A and 2B)

median value of T1 ([1]; at 400 Mhz): 26 ± 5 s
Compound: [2H][13C]([2H])([2H])C(O)([13C]([2H])([2H])[2H])[13C]([2H])([2H])[2H]

Compound: CC(C)(C)O [t-butanol, tert-butyl alcohol]
processing by alcohol dehydrogenase enzyme [2]: not processed

Compound: [Xe] [Xenon]
relaxation time ([3]; in blood): less than 10 seconds
relaxation time ([3]; in tissue): ≥ 2 s

median value of T1 ([1]; at 400 Mhz): 64 ± 20 s
T1 ([1]; at 400 Mhz, measured in water with oxygen present): > 20 s
T1 [1, 5]: 46±4
T2 [1, 5]: 0.6±0.02
Compound: [2H]C([2H])([2H])[13C](O)(C([2H])([2H])[2H])C([2H])([2H])[2H]

Compound: [3He] [3He]
solubility in blood [4]: not soluble in blood
